Measurements taken from US20220288057A1, “CONJOINT THERAPY FOR TREATING SEIZURE DISORDERS” (XENON PHARMACEUTICALS INC., priority 2021, published 2022).
Like-named read-outs stand apart in the source and are kept apart here.

Experiment: Terminal plasma and brain concentrations in AC-MES studies (UHPLC-MS/MS)
Assay type: in vivo, mouse
Settings: CF-1, mouse, in vivo; for Kp at 2 h: read-out: B/P Ratio
Protocol: Sample Collection and Preparation: Mice were anesthetized by isoflurane inhalation (according to SOP TECH-018) until they reached a surgical plane of anesthesia. Then a syringe (1 mL syringe with a 22 gauge needle) was inserted under the sternum into the heart (according to SOP TECH-031). Approximately 0.5 mL of blood was collected, deposited into a K2EDTA tube, and stored on ice. Animals were then euthanized by cervical dislocation. Brains were removed, placed into a pre-weighed vial, and snap frozen on dry ice. At the end of the sample collection, blood was centrifuged at 4000 rpm for 10 minutes at 4° C., and the plasma pipetted into a labeled tube. All samples were stored in a −80° C. freezer until the time of bioanalysis.
Plasma Samples: Extraction of plasma samples was carried out by protein precipitation using acetonitrile. Diluted plasma samples (50 μL) were mixed with 50 μL of internal standard (IS) solution in 1:1 acetonitrile:water (v:v) followed by addition of 200 μL of acetonitrile. Samples were vortexed for 30 seconds, centrifuged at 13,000 rpm for 20 minutes, decanted into a 96-well plate and further centrifuged at 4000 rpm for 20 minutes. The samples were analyzed by ultra-high performance liquid chromatography electrospray ionization tandem mass spectrometry (UHPLC-ESI-MS/MS) as described in the bioanalysis procedure below.
Brain Samples: Prior to extraction, pre-weighed whole brains were homogenized in 1:1 acetonitrile:water (v:v) (2 mL per mouse brain) using an IKA T18 Ultra-Turrax Homogenizer at the setting of 4 for approximately 1 minute. The homogenate was centrifuged at 13,000 rpm for 20 minutes and 50 μL of the supernatant were treated exactly as described in above for plasma samples.
Bioanalysis Procedures: All samples, including plasma and brain homogenate extracts (including calibration standards and quality control (QC) samples prepared in K2EDTA mouse plasma), were extracted by protein precipitation. To each 50 μL aliquot of sample, 50 μL of IS solution (2500 ng/mL of Lacosamide in water:acetonitrile (1:1)) and 50 μL of 6% (v:v) phosphoric acid in water were added, then 200 μL acetonitrile was added. The samples in 1.7 mL tubes were vortex-mixed then centrifuged for 20 minutes at 13,000 rpm. Fifty microliters of the supernatant was mixed with 150 μL of water:acetonitrile (1:1) in a 96 well plate, which was centrifuged post-mixing for 20 minutes at 4000 rpm. The samples were then ready for UHPLC-MS/MS analysis.
Samples were analyzed for Compound A by a research-grade UHPLC-MS/MS method using the conditions listed below.
Samples were analyzed for Lacosamide by a research-grade UHPLC-MS/MS method using the conditions listed below.
At least three QC samples, one at each concentration, had to show back-calculated values within ±20% of their nominal concentrations for the whole sample batch to be valid.
The Blinding and Randomization, Clinical Observations, AC-MES Assay, Sample Collection and Preparation, Plasma and Brain Samples Analysis, and Bioanalysis Procedures in Example 4 were identical to those used in Example 2.
Sample concentration determination and Data Processing and Analysis in Example 4 was identical to Example 2.

COC[C@@H](NC(C)=O)C(=O)NCc1ccccc1 [Lacosamide, reference compound]
Kp at 2 h (6 mg/kg, Study 2A, Lacosamide 6 mg/kg PO, 2 h): 0.54 | concentration at 2 h (6 mg/kg, Study 2A, Lacosamide 6 mg/kg PO, 2 h, read-out: Mean Brain): 4.85 µM | concentration at 2 h (6 mg/kg, Study 2A, Lacosamide 6 mg/kg PO, 2 h, read-out: Mean Plasma): 9.07 µM | Kp at 2 h (6 mg/kg, Study 2D, Lacosamide 6 mg/kg PO, 2 h): 1.15 | concentration at 2 h (6 mg/kg, Study 2D, Lacosamide 6 mg/kg PO, 2 h, read-out: Mean Brain): 7.95 µM | concentration at 2 h (6 mg/kg, Study 2D, Lacosamide 6 mg/kg PO, 2 h, read-out: Mean Plasma): 6.9 µM | Kp at 2 h (8 mg/kg, Study 2A, Lacosamide 8 mg/kg PO, 2 h): 0.58 | concentration at 2 h (8 mg/kg, Study 2A, Lacosamide 8 mg/kg PO, 2 h, read-out: Mean Brain): 6.27 µM | concentration at 2 h (8 mg/kg, Study 2A, Lacosamide 8 mg/kg PO, 2 h, read-out: Mean Plasma): 10.8 µM | Kp at 2 h (10 mg/kg, Study 2B, Lacosamide 10 mg/kg PO, 2 h): 0.21 | concentration at 2 h (10 mg/kg, Study 2B, Lacosamide 10 mg/kg PO, 2 h, read-out: Mean Brain): 2.63 µM | concentration at 2 h (10 mg/kg, Study 2B, Lacosamide 10 mg/kg PO, 2 h, read-out: Mean Plasma): 12.6 µM | Kp at 2 h (10 mg/kg, Study 2C, Lacosamide 10 mg/kg PO, 2 h, alone): 0.28 | concentration at 2 h (10 mg/kg, Study 2C, Lacosamide 10 mg/kg PO, 2 h, alone, read-out: Mean Brain): 4.84 µM | concentration at 2 h (10 mg/kg, Study 2C, Lacosamide 10 mg/kg PO, 2 h, alone, read-out: Mean Plasma): 17.1 µM | Kp at 2 h (20 mg/kg, Study 2D, Lacosamide 20 mg/kg PO, 2 h): 1.12 | concentration at 2 h (20 mg/kg, Study 2D, Lacosamide 20 mg/kg PO, 2 h, read-out: Mean Brain): 26.8 µM | concentration at 2 h (20 mg/kg, Study 2D, Lacosamide 20 mg/kg PO, 2 h, read-out: Mean Plasma): 23.9 µM | Kp at 2 h (Study 2C, analyte Lacosamide, 10 mg/kg PO 2 h + Compound A 3 mg/kg PO 0.5 h): 0.29 | concentration at 2 h (Study 2C, analyte Lacosamide, 10 mg/kg PO 2 h + Compound A 3 mg/kg PO 0.5 h, read-out: Mean Brain): 4.52 µM | concentration at 2 h (Study 2C, analyte Lacosamide, 10 mg/kg PO 2 h + Compound A 3 mg/kg PO 0.5 h, read-out: Mean Plasma): 15.5 µM
